In patent US6274718A (priority 2000, dated 2001):
Where a SMILES comes first, the peptide text is derived from it.

Key:
gingipain-1 [1] = target: gingipain-1 (Porphyromonas gingivalis, UniProt P28784); assay: biochemical; assay type: biochemical; conditions: for activity at 100 µM / activity at 1000 µM / activity at 10000 µM: pH 7.5, read-out: Activity -Gly-Gly; for stimulation of amidolytic activity: thiol / reducing compounds; for Activity +Gly-Gly: 0.1 mM compound, 50 mM Gly-Gly
gingipain-1 [2] = assay: biochemical; assay type: biochemical, Porphyromonas gingivalis; conditions: Sephadex G-150 peak fractions
guinea pig skin = assay type: in vivo; conditions: 10^-5 M

Sequence of gingipain-1 (Porphyromonas gingivalis, UniProt P28784) (P28784 228-719): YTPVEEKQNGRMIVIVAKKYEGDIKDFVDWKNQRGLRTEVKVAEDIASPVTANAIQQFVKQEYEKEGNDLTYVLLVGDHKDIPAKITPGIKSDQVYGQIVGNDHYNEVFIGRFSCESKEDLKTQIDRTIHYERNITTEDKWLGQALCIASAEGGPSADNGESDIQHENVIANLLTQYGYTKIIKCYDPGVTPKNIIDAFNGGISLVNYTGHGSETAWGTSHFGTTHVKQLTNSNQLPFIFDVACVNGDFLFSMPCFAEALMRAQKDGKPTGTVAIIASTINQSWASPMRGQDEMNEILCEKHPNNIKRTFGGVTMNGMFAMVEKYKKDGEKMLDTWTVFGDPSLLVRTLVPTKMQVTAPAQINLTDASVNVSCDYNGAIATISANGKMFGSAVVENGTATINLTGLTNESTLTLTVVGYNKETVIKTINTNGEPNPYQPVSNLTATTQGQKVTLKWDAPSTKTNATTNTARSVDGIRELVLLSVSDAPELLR

Row | Molecule | activity at 100 µM (gingipain-1 [1]) [%] | Activity +Gly-Gly (gingipain-1 [1]) [%] | activity at 1000 µM (gingipain-1 [1]) [%] | activity at 10000 µM (gingipain-1 [1]) [%] | further results
1 | NCC(=O)O [glycine] | – | – | – | – | effect of glycine and glycine analogues on kcat/Km (gingipain-1 [1]; preliminary kinetic data, kcat and Km both raised equally): kcat /Km ratio does not change
2 | N[C@@H](CS)C(=O)O [Cysteine] | 685 | – | – | – | stimulation of amidolytic activity (gingipain-1 [1]): most efficient
3 | NCC(N)=O [glycine amide] | – | – | – | – | enhancement of Bz-L-Arg-pNA hydrolytic activity (gingipain-1 [2]): enhanced many-fold
4 | OCCS [Mercaptoethanol] | 165 | 627 | 456 | 685 | –
5 | NCC(=O)NCC(=O)O [Gly-Gly, glycyl-glycine] (H-Gly-Gly-OH) | – | – | – | – | enhancement of Bz-L-Arg-pNA hydrolytic activity (gingipain-1 [2]): enhanced many-fold
6 | NCCS [cysteamine] | – | – | – | – | stimulation of amidolytic activity (gingipain-1 [1]): most efficient
7 | O[C@H](CS)[C@H](O)CS (racemic) [Dithiothreitol] | 159 | 636 | 432 | 685 | –
8 | N[C@@H](CCC(=O)N[C@@H](CS)C(=O)NCC(=O)O)C(=O)O [Glutathione] | 208 | 853 | 593 | 770 | –
9 | soybean trypsin inhibitor: soybean trypsin inhibitor (SBTI) (protein, UniProt P01070 25-205, looked up) Trypsin inhibitor A: DFVLDNEGNPLENGGTYYILSDITAFGGIRAAPTGNERCPLTVVQSRNELDKGIGTIISSPYRIRFIAEGHPLSLKFDSFAVIMLCVGIPTEWSVVEDLPEGPAVKIGENKDAMDGWFRLERVSDDEFNNYKLVFCPQQAEDDKCGDIGISIDHDDGTRRLVVSKNKPLVVQFQKLDKESL | – | – | – | – | inhibition of vascular permeability enhancement (guinea pig skin): inhibited
